According to US20240182460A1, “ALLOSTERIC CHROMENONE INHIBITORS OF PHOSPHOINOSITIDE 3-KINASE (PI3K) FOR THE TREATMENT OF DISEASE” (PETRA PHARMA CORPORATION, priority 2022, published 2024):

Columns and labels:
[1] = Metabolic stability and intrinsic clearance in human liver microsomes (MICS); assay type: in vitro ADME; settings: human, microsomes, pH 7.4
Experimental: Metabolic Stability and Intrinsic Clearance in Liver Microsomes (MICS)
One objective of this assay is to measure in vitro metabolic stability of a test compound in liver microsomes of one or more different species. The concentration of a control compound in the reaction system is evaluated by LC/MS/MS for calculating intrinsic clearance of a test compound and estimating the stability of the control compound and test compound in liver microsomes of one or more different species.
Microsomes (MICS). Human Liver Microsomes (HLM), Monkey Liver Microsomes (MKLM), Dog Liver Microsomes (DLM), Rat Liver Microsomes (RLM), and Mouse Liver Microsomes (MLM) are obtained at a concentration of 20 mg/mL protein from commercial sources and stored in a −80° C. freezer. Prior to use, liver microsomes are removed from the freezer and allowed to thaw in a 37° C. water bath and then stored on wet ice.
Stock Solutions. Test Compound (TC) Stock Solutions are prepared in DMSO at a concentration of 10 mM and stored for later use. Positive Control (PC) Stock Solutions of verapamil·HCL (FW: 491.1 g/mol) in DMSO are prepared at a concentration of 10 mM (4.91 mg/mL), and stored at the condition same as the stock solutions of test compounds.
Phosphate Buffer. Phosphate Buffer (100 mM, pH 7.4) is prepared by combining a Solution A and a Solution B as follows.
To prepare Solution A, 7.098 g of disodium hydrogen phosphate was combined with 500 mL of pure water and sonicated to dissolve. To prepare the Solution B, 3.400 g of potassium dihydrogen phosphate was combined with 250 mL of pure water and sonicated to dissolve. Solution A was placed on a stirrer and Solution B was slowly added into Solution A until the pH reached 7.4.
NADPH Solution. A 10 mM NADPH Solution is prepared by dissolving NADPH (MW: 833.4 g/mol) at 8.334 mg/mL in phosphate buffer (100 mM, pH 7.4).
Microsome Master Solution. A Microsome Master Solution is prepared by adding 6.25 μL microsomes (20 mg/mL) to 216.25 μL Phosphate Buffer (100 mM). The final concentration is Phosphate Buffer (100 mM); microsomes (0.5 mg/mL).
Dilution of Stock Solutions. The TC Stock Solutions (10 mM in DMSO) and the PC Stock Solutions (10 mM in DMSO) are diluted by adding 3 μL of the TC Stock Solution or the PC Stock Solution to 297 μL of 50% acetonitrile/50% water.
Incubation. Two separated experiments were performed as follows. a) With Cofactors (NADPH): 25 μL of 10 mM NADPH was added to the incubations. The final concentrations of
microsomes and NADPH were 0.5 mg/mL and 1 mM, respectively. b) Without Cofactors (NADPH): 25 μL of 100 mM Phosphate buffer was added to the incubations. The final concentration of microsomes was 0.5 mg/mL. The mixture was pre-warmed at 37° C. for 10 minutes.
The reaction was started with the addition of 2.5 μL of 100 μM PC solution or TC solutions.
Verapamil was used as PC in this study. The final concentration of test compound or control compound was 1 μM. The incubation solution was incubated in water batch at 37° C.
Reaction Termination. Aliquots of 30 μL were taken from the reaction solution at 0.5, 5, 15, 30 and 60 minutes and added to plates. The reaction was stopped by the addition of 5 volumes of cold acetonitrile and a solution containing 100 nM alprazolam, 200 nM caffeine and 100 nM tolbutamide.
Sampling. The plates containing the terminated reactions were centrifuged at 4000 rpm for 30 minutes. Supernatant of each compound (40 μL) was transferred into a 96-well analysis plate.
Four compound samples are pooled together into one cassette and diluted by adding 160 μL of pure water. All incubations are performed in duplicate.
Analysis and Data Processing. Quantitative LC-MS analysis is performed, and peak areas are determined from extracted ion chromatograms. Percent parent remaining was calculated from peak area of TC or PC. The slope value, k, is determined by linear regression of the natural logarithm of percent parent remaining vs. incubation time curve. […]

PI3Kα E545K = PI3Kα E545K (Homo sapiens, UniProt P42336, E545K); test: PI3Kα E545K mutant in vitro cell based assay, MDA-MB-361 cells; set-up: MDA-MB-361 (ATCC-HTB-27) cell line (PI3Kα E545K); host or cells: MDA-MB-361; settings: MDA-MB-361 cell line, 0% FBS, no insulin, 3 hours treatment
PI3Kα E545K, sequence (P42336 whole entry E545K): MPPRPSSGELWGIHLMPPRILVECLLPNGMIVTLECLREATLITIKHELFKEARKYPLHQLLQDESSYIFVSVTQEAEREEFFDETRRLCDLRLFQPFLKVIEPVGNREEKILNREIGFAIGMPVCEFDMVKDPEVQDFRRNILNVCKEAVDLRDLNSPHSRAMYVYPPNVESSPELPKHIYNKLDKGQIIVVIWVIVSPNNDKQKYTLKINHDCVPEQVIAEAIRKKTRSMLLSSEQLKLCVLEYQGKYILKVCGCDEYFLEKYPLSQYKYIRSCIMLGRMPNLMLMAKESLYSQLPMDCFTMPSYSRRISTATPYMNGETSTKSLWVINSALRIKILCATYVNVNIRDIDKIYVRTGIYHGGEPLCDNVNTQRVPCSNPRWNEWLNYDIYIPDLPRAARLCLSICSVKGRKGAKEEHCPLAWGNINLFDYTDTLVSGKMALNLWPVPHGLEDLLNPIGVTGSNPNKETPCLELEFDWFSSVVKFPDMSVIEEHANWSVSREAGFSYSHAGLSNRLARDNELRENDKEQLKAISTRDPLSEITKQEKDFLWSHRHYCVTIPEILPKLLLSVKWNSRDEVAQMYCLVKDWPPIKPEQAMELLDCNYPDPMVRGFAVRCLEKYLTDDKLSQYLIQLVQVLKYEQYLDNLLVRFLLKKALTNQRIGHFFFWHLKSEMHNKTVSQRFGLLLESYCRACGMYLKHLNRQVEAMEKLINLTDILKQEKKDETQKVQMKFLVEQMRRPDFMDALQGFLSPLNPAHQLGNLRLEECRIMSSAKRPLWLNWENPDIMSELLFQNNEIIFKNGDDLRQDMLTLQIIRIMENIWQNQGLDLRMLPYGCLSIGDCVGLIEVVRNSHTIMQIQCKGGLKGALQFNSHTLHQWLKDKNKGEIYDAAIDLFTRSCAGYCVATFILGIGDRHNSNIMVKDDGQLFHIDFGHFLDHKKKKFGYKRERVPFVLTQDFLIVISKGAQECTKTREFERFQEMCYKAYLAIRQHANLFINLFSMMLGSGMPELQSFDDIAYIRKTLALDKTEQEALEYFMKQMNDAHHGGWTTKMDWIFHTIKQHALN
PI3Kα E545K, sequence (P27986 whole entry partner): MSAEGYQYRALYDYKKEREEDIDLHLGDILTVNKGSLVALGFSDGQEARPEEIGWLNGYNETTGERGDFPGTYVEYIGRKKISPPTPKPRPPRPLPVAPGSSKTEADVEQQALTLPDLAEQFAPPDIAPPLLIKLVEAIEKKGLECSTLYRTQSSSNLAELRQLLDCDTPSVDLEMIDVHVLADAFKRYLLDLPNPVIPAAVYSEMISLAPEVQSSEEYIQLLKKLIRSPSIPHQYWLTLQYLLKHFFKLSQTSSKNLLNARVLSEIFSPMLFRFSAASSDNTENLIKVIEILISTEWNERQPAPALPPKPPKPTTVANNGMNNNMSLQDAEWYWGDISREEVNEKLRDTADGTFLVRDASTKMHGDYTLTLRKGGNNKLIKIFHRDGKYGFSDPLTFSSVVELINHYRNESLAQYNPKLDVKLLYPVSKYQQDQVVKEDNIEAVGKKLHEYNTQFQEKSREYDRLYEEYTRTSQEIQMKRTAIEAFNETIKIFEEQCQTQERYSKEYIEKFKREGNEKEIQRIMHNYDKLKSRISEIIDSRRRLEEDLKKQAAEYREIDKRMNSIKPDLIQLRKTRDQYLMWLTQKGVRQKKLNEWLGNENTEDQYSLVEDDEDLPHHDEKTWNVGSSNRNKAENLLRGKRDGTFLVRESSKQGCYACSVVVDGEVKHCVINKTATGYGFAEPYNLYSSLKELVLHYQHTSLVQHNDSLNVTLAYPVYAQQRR
Excerpt: PI3K-Alpha Kinase (PI3Kα) Activity: Wild-Type PI3Kα, H1047R Mutant PI3Kα, and E545K Mutant PI3Kα In Vitro Cell Based Assays and Determination of IC50 Values for Inhibitors
The MDA-MB-453 (ATCC-HTB-131) cell line (PI3Kα H1047R) and MCF-7 (ATCC-HTB-22) cell line (PI3Kα E545K), MDA-MB-361 (ATCC-HTB-27) cell line (PI3Kα E545K), and SKBR3 (ATCC-HTB-30) cell line (wild type PI3Kα) were obtained from the American Type Culture Collection (Manassas, VA). MDA-MB-453 cells were maintained in Dulbecco's Modified Eagle Media (DMEM, Gibco 12430) supplemented with 10% Fetal Bovine Serum, heat inactivated (FBS HI, Gibco 10082), 1× non-essential amino acids (NEAA, Gibco 11140), 1 mM sodium pyruvate (Gibco 11360) and 1× Anti-Anti (Gibco 15240). MCF-7 cells were maintained in Minimum Essential Media (MEM) (Gibco 11095) supplemented with 10% Fetal Bovine Serum, heat inactivated (FBS HI, Gibco 10082), 1× non-essential amino acids (NEAA, Gibco 11140), 1 mM sodium pyruvate (Gibco 11360), 1× Anti-Anti (Gibco 15240) and 10 μg/mL human insulin (Sigma I 9278). MDA-MB-361 cells were maintained in Dulbecco's Modified Eagle Media (DMEM, Gibco 12430) supplemented with 20% Fetal Bovine Serum, heat inactivated (FBS HI, Gibco 10082), 1× non-essential amino acids (NEAA, Gibco 11140), 1 mM sodium pyruvate (Gibco 11360) and 1× Anti-Anti (Gibco 15240). SKBR3 cells were maintained in McCoy's 5A (Gibco 16600) supplemented with 10% Fetal Bovine Serum, heat inactivated (FBS HI, Gibco 10082), and 1× Anti-Anti (Gibco 15240). Cultures were maintained in a humidified incubator at 37° C. under 5% CO2/95% air.
For compound testing in 0% FBS, MDA-MB-453, MCF-7 and SKBR3 cells were seeded at a density of 1.5×10^4, 1.0×10^4, and 1.0×10^4 cells, respectively, per well in white 384-well plates in 20 μl of Minimum Essential Media (MEM) assay media with 1×NEAA, 1 mM sodium pyruvate, and 1 μg/mL human insulin (Sigma 19278) (Assay Medium); while MDA-MB-361 cells were seeded at a density of 1.5×10^4 per well in white 384-well plates in 20 μl Assay Medium without insulin. After plating, cells were allowed to attach overnight. Compounds dissolved in 10 mM stock solutions in DMSO were serially diluted 1:3 in DMSO to generate a 10-point dilution series and plated using an acoustic liquid handler system (Echo 550 Series Liquid Handler, Labcyte). A 5× intermediate compound dilution plate in MEM with 1×NEAA and 1 mM sodium pyruvate (150 μM starting compound concentration in 1.5% DMSO) was then prepared. Five μl of the intermediate serially diluted compounds were added to the cell plate to final concentrations ranging from […] in 0.3% DMSO. 0.3% DMSO alone was used to establish the maximum (MAX) signal and GDC-0032 at a final concentration of 1 μM was used as a reference compound for the minimum (MIN) signal. After 3 hours treatment, the medium was removed, and the cells were lysed in 10 μL of 1× SureFire Lysis buffer with shaking for 10 minutes at room temperature. The Acceptor Mix (Reaction Buffer 1+Reaction Buffer 2+Activation Buffer+SureFire Ultra Acceptor Beads) was prepared by diluting Activation buffer 25-fold in combined Reaction Buffer 1 and Reaction Buffer 2.
The Acceptor beads were diluted 50-fold in the combined Reaction Buffers. Five μL of Acceptor Mix was added to each well, the plate was sealed and covered with foil and incubated for 1 hour at room temperature. The Donor Mix (dilution buffer+SureFire Ultra Donor Beads) was prepared by diluting Donor Beads 50-fold in dilution buffer. Five μL of the Donor Mix was added to each well and the plate sealed and covered with foil and incubated for 1-2 hours at room temperature in the dark. The plates were read on a Neo2 plate reader instrument from Biotek using standard AlphaLisa settings.
Compounds were tested in duplicate and the % inhibition at each compound concentration was used to generate two dose response curves. One IC50 was generated using average % inhibition at each compound concentration. […]

microsomal CLint at 1 μM [1] [µL/min/mg]	IC50 (PI3Kα E545K) [µM]	SMILES
< 50	< 0.5	Cc1cc([C@@H](C)Oc2ccc(Cl)nc2S(N)(=O)=O)c2oc(-c3cnn(C[C@@H](C)O)c3)c(C)c(=O)c2c1 [Example 4B, 6-Chloro-3-[(1R)-1-[2-[1-[(2R)-2-hydroxypropyl]pyrazol-4-yl]-3,6-dimethyl-4-oxo-chromen-8-yl]ethoxy]pyridine-2-sulfonamide]
< 50	< 0.5	Cc1cc([C@@H](C)Oc2ccc(Cl)nc2C(N)=O)c2oc(-c3cnc4ccoc4c3)c(C)c(=O)c2c1 [Example 80C, 6-Chloro-3-[(1R)-1-(2-furo[3,2-b]pyridin-6-yl-3,6-dimethyl-4-oxo-chromen-8-yl)ethoxy]pyridine-2-carboxamide]
< 50	< 0.5	Cc1cc([C@@H](C)Oc2ccc(F)cc2S(N)(=O)=O)c2oc(-c3cnn(C)c3)c(C)c(=O)c2c1 [Example 105C, 2-[(1R)-1-[3,6-Dimethyl-2-(1-methylpyrazol-4-yl)-4-oxo-chromen-8-yl]ethoxy]-5-fluoro-benzenesulfonamide]
< 50	< 0.5	Cc1cc([C@@H](C)Oc2ccc(Cl)cc2S(N)(=O)=O)c2oc(C3CC3)c(C)c(=O)c2c1 [Example 101C, 5-Chloro-2-[(1R)-1-(2-cyclopropyl-3,6-dimethyl-4-oxo-chromen-8-yl)ethoxy]benzenesulfonamide]
< 50	< 0.5	Cc1cc([C@@H](C)Oc2ccc(Cl)cc2S(N)(=O)=O)c2oc(-c3cnn(C)c3)c(C)c(=O)c2c1 [Example 99C, 5-Chloro-2-[(1R)-1-[3,6-dimethyl-2-(1-methylpyrazol-4-yl)-4-oxo-chromen-8-yl]ethoxy]benzenesulfonamide]
< 50	< 0.5	Cc1cc([C@@H](C)Oc2ccc(Cl)nc2S(N)(=O)=O)c2oc(-c3cnc4ccoc4c3)c(C)c(=O)c2c1 [Example 22C, 6-Chloro-3-[(1R)-1-(2-furo[3,2-b]pyridin-6-yl-3,6-dimethyl-4-oxo-chromen-8-yl)ethoxy]pyridine-2-sulfonamide]
< 50	< 0.5	Cc1cc([C@@H](C)Oc2ccc(Cl)nc2C(N)=O)c2oc(-c3ccc4nn(C)cc4c3)c(C)c(=O)c2c1 [Example 11A, 6-Chloro-3-[(1R)-1-[3,6-dimethyl-2-(2-methylindazol-5-yl)-4-oxo-chromen-8-yl]ethoxy]pyridine-2-carboxamide]
< 50	< 0.5	CCn1cc2cc(-c3oc4c([C@@H](C)Oc5ccc(Cl)nc5C(N)=O)cc(C)cc4c(=O)c3C)ccc2n1 [Example 75C, 6-Chloro-3-[(1R)-1-[2-(2-ethylindazol-5-yl)-3,6-dimethyl-4-oxo-chromen-8-yl]ethoxy]pyridine-2-carboxamide]
< 50	< 0.5	Cc1cc([C@@H](C)Oc2ccc(Cl)nc2S(N)(=O)=O)c2oc(-c3cnn(CC(C)(C)O)c3)c(C)c(=O)c2c1 [Example 2B, 6-Chloro-3-[(1R)-1-[2-[1-(2-hydroxy-2-methyl-propyl)pyrazol-4-yl]-3,6-dimethyl-4-oxo-chromen-8-yl]ethoxy]pyridine-2-sulfonamide]
< 50	< 0.5	Cc1cc([C@@H](C)Oc2ccc(F)nc2S(N)(=O)=O)c2oc(-c3ccccc3)c(C)c(=O)c2c1 [Example 74C, 3-[(1R)-1-(3,6-Dimethyl-4-oxo-2-phenyl-chromen-8-yl)ethoxy]-6-fluoro-pyridine-2-sulfonamide]
< 50	< 0.5	Cc1cc([C@@H](C)Oc2ccc(Cl)nc2C(N)=O)c2oc(-c3cnc(OC(C)C)nc3)c(C)c(=O)c2c1 [Example 79C, 6-Chloro-3-[(1R)-1-[2-(2-isopropoxypyrimidin-5-yl)-3,6-dimethyl-4-oxo-chromen-8-yl]ethoxy]pyridine-2-carboxamide]
